Test results: ChEMBL document CHEMBL4819085, “Dipyridyl-substituted thiosemicarbazone as a potent broad-spectrum inhibitor of metallo-β-lactamases” (Bioorg Med Chem, 2021)
In brackets after ≈: the same amount, converted by molar mass. Activity calls are given as the source filed them. No cut-off for these calls is given here.

How the values were obtained:
Escherichia coli [1] = experiment: Potentiation of meropenem-induced antibacterial activity against Escherichia coli 04 assessed as meropenem MIC incubated for 24 hrs by broth microdilution method; format: functional
Escherichia coli [2] = experiment: Potentiation of meropenem-induced antibacterial activity against Escherichia coli 24 assessed as meropenem MIC incubated for 24 hrs by broth microdilution method; format: functional
Klebsiella pneumoniae [3] = experiment: In vivo antibacterial activity against Klebsiella pneumoniae producing NDM-1 infected in mouse assessed as reduction in bacterial load in spleen at 2 mg/kg, ip in presence of meropenem; format: functional, organism-based
Escherichia coli [4] = experiment: Inhibition of Escherichia coli IMP-1 assessed as potentiation of meropenem-induced antibacterial activity by measuring meropenem MIC incubated for 24 hrs by broth microdilution method
Klebsiella pneumoniae [5] = experiment: In vivo antibacterial activity against Klebsiella pneumoniae producing NDM-1 infected in mouse assessed as reduction in bacterial load in liver at 2 mg/kg, ip; format: functional, organism-based
Escherichia coli [6] = experiment: Synergistic antibacterial activity against Escherichia coli at 16 ug/ml in presence of meropenem; format: functional, organism-based; conditions: dose 16.0 µg/ml
Bacteria [7] = experiment: (§1) Inhibition of bacterial ImiS expressed in Escherichia coli BL21 (DE3) using meropenem as substrate incubated for 1 hr by spectrometry analysis
[8] = as §1; set-up: species or system Bacteria
[9] = Cytotoxicity against African green monkey Vero E6 cells assessed as cell viability at 50 uM relative to control; format: cell-based, Vero C1008; conditions: chlorocebus sabaeus, read-out: Activity
[10] = Binding affinity to Zn2+ ion assessed as UV absorption peak at 435 nm at 50 uM incubated for 5 mins in presence of ZnCl2 by spectrometry analysis
Escherichia coli [11] = experiment: Antibacterial activity against Escherichia coli 24 assessed as reduction in bacterial growth incubated for 24 hrs by broth microdilution method; format: functional
Escherichia coli [12] = experiment: Potentiation of meropenem-induced antibacterial activity against Escherichia coli 01 assessed as meropenem MIC incubated for 24 hrs by broth microdilution method; format: functional
Klebsiella pneumoniae [13] = experiment: Antibacterial activity against Klebsiella pneumoniae assessed as fractional inhibitory concentration index incubated for 24 hrs in presence of meropenem by checkerboard assay; format: functional
Escherichia coli [14] = experiment: Inhibition of Escherichia coli NDM-1 assessed as bacterial growth rate in presence of ZnCl2 relative to control; set-up: scale not given: the % may be the effect or the level left
Bacteria [15] = experiment: Inhibition of bacterial NDM-1 expressed in Escherichia coli BL21 (DE3) at 20 uM using meropenem as substrate incubated for 1 hr by spectrometry analysis relative to control
Escherichia coli [16] = experiment: Antibacterial activity against Escherichia coli producing ImiS assessed as fractional inhibitory concentration index incubated for 24 hrs in presence of meropenem by checkerboard assay; format: functional
Bacteria [17] = experiment: (§2) Inhibition of bacterial VIM-2 expressed in Escherichia coli BL21 (DE3) using meropenem as substrate incubated for 1 hr by spectrometry analysis
[18] = as §2; set-up: species or system Bacteria
Klebsiella pneumoniae [19] = experiment: Potentiation of meropenem-induced antibacterial activity against Klebsiella pneumoniae assessed as meropenem MIC incubated for 24 hrs by broth microdilution method; format: functional
Escherichia coli [20] = experiment: Antibacterial activity against Escherichia coli 06 assessed as reduction in bacterial growth incubated for 24 hrs by broth microdilution method; format: functional
Escherichia coli [21] = experiment: Inhibition of Escherichia coli NDM-1 assessed as potentiation of meropenem-induced antibacterial activity by measuring fold reduction in meropenem MIC up to 8 ug/ml incubated for 24 hrs by broth microdilution method relative to meropenem alone; conditions: dose microg/ml <=8, time 24.0 hrs
[22] = Binding affinity to Zn2+ ion assessed as UV absorption peak at 325 nm at 50 uM incubated for 5 mins in presence of ZnCl2 by spectrometry analysis
Enterococcus faecium = experiment: Antibacterial activity against vancomycin-resistant Enterococcus faecium assessed as reduction in bacterial growth incubated for 24 hrs by broth microdilution method; format: functional
Escherichia coli [23] = experiment: Inhibition of Escherichia coli NDM-1 assessed as potentiation of meropenem-induced antibacterial activity by measuring meropenem MIC incubated for 24 hrs by broth microdilution method

Question: With `CN(C(=S)NN=C(c1ccccn1)c1ccccn1)C1CCCCC1` as the compound, how does the MIC (Escherichia coli [1]) read?
Answer: 16 µg/mL

Question: What about the MIC (Escherichia coli [2]) of the same compound?
Answer: 16 µg/mL

Question: What about the inhibition (Klebsiella pneumoniae [3]) of the same compound?
Answer: Active

Question: And the MIC (Escherichia coli [4])?
Answer: 16 µg/mL

Question: And the inhibition (Klebsiella pneumoniae [5])?
Answer: inactive

Question: What about the Activity (Escherichia coli [6]) of the same compound?
Answer: Active

Question: What about the inhibition (Bacteria [7]) of the same compound?
Answer: Dose-Dependent Effect

Question: What about the IC50 [8] of the same compound?
Answer: 75 nM

Question: And the viability at 50 µM [9]?
Answer: > 70%

Question: And the Activity [10]?
Answer: Active

Question: What about the MIC (Escherichia coli [11]) of the same compound?
Answer: 16 µg/mL (≈ 45.3 µM)

Question: What about the MIC (Escherichia coli [12]) of the same compound?
Answer: 32 µg/mL

Question: What about the FIC (Klebsiella pneumoniae [13]) of the same compound?
Answer: 0.313

Question: What about the Activity (Escherichia coli [14]) of the same compound?
Answer: 90%

Question: And the inhibition (Bacteria [15])?
Answer: > 90%

Question: What about the FIC (Escherichia coli [16]) of the same compound?
Answer: 0.313

Question: What about the inhibition (Bacteria [17]) of the same compound?
Answer: Dose-Dependent Effect

Question: What about the IC50 [18] of the same compound?
Answer: 110 nM

Question: What about the MIC (Klebsiella pneumoniae [19]) of the same compound?
Answer: 32 µg/mL

Question: And the MIC (Escherichia coli [20])?
Answer: 16 µg/mL (≈ 45.3 µM)

Question: And the fold change (FC) (Escherichia coli [21])?
Answer: 256

Question: And the Activity [22]?
Answer: Active

Question: And the MIC (Enterococcus faecium)?
Answer: 16 µg/mL (≈ 45.3 µM)

Question: What about the MIC (Escherichia coli [23]) of the same compound?
Answer: 8 µg/mL
